According to article doi:10.1101/2025.03.14.643404, “A Bivalent Molecular Glue Linking Lysine Acetyltransferases to Oncogene-induced Cell Death” (bioRxiv, 2025):
Entries after “also recorded” stand apart in the source; their conditions may differ.

System: primary human fibroblasts
Assay: Viability of primary human fibroblasts, 72 h
Type: cell-based
Settings: compared with SUDHL5
Procedure: Lymphoma and leukemia cells were grown in RPMI-1640 medium (ATCC 30–2001) supplemented with 10% fetal bovine serum (FBS) and 1% 100X Penicillin-Streptomycin (Gibco, 15140122) in incubators at 37°C with 5% carbon dioxide. KARPAS422 cells were obtained from Sigma (06101702) and DB and SUDHL5 were obtained from the American Tissue Culture Collection (ATCC). The Daudi cell line, originally from ATCC, was generously provided by R. Levy’s laboratory at Stanford University. Raji cells, also from ATCC, were a gift from J. Cochran’s laboratory at Stanford University. TOLEDO and K562 cells were originally obtained from ATCC and were kindly shared by A. Alizadeh’s laboratory at Stanford University. […]
Thirty thousand cells were seeded in 100 μl of media per well of a 96-well plate and treated with drug for the indicated times and doses. A resazurin-based indicator of cell health (PrestoBlue; P50200, Thermo Fisher) was added for 1.5 h at 37°C, at which point the fluorescence ratio at 560/590 nm was recorded (Tecan Spark). The background fluorescence was subtracted, and the signal was normalized to DMSO-treated cells. IC50 measurements on cell lines were calculated using at least three biological replicates (separate cell passages). […]

CNC(=O)COc1cc2cc(Nc3nc(N4CCC(C(=O)N5CCN(CCC(=O)N6CCC(n7nc(N8CCCc9cc(-c%10cnn(C)c%10)c(C(F)F)cc98)c8c7CCN(C(=O)NC)C8)CC6)CC5)CC4)ncc3Cl)cc(OC)c2n(C)c1=O [TCIP3]
cytotoxicity: substantially reduced cytotoxicity; also recorded: without exhibiting toxicity
